Tests used:
[1] = biological target: T1, HPK1 protein (Homo sapiens, UniProt Q92918); assay: HPK1 enzyme inhibition assay (ADP-Glo); assay type: biochemical; conditions: MBP substrate, ATP, ADP-Glo readout
T1 construct: purchased Signal Chem M23-11G-10
T1 sequence (Q92918 1-346 limits assumed): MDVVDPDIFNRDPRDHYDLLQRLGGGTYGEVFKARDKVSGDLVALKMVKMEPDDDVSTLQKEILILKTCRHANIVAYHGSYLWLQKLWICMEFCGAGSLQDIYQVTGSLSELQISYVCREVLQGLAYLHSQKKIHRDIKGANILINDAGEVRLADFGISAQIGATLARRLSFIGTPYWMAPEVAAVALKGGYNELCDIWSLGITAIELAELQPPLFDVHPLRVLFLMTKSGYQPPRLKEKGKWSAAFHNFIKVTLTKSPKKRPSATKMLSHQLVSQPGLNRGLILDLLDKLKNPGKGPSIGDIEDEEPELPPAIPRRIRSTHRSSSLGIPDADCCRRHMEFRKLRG
Method in brief: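 Recombinant human HPK1 preincubated with compound 60 min at 25 °C, then reaction with MBP (0.2 ug/ul, 2× stock) and ATP (20 μM, 2× stock) 60 min at 25 °C. ADP formed detected by ADP-Glo after ATP depletion and conversion to ATP; IC50 calculated from signal.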

[2] = biological target: T2, HPK1 protein (Homo sapiens, UniProt Q92918); assay: HPK1 protein degradation in human PBMC (western blot); assay type: cell-based; conditions: 18 h incubation
T2 construct: Frozen human PBMC were purchased from Shanghai OribioTech; host or cells: human PBMC
Description: HPK1 protein degradation in human PBMC: Frozen human PBMC were purchased from Shanghai OribioTech and recovered with culture medium (RMPI1640) prior to use. The cells were then incubated with a variety of concentrations of compound. After incubation for 18 h, the cells were collected and lysed. The protein concentration was determined by BCA protein assay kit from Thermo (23227). The HPK1 protein level was determined by western blots, using anti-human HPK1 polyclonal antibody from CST (4472S). Proteins were loaded into each well of the pre-casting gels and subjected to electrophoretic separation by SDS-PAGE. The protein resolved by SDS-PAGE were transferred to PVDF, blocked by 5% skim milk, and probed with anti-human HPK1 antibody or β-actin antibody from CST (3700S), using standard western blotting procedure.
T2 sequence (Q92918 whole entry): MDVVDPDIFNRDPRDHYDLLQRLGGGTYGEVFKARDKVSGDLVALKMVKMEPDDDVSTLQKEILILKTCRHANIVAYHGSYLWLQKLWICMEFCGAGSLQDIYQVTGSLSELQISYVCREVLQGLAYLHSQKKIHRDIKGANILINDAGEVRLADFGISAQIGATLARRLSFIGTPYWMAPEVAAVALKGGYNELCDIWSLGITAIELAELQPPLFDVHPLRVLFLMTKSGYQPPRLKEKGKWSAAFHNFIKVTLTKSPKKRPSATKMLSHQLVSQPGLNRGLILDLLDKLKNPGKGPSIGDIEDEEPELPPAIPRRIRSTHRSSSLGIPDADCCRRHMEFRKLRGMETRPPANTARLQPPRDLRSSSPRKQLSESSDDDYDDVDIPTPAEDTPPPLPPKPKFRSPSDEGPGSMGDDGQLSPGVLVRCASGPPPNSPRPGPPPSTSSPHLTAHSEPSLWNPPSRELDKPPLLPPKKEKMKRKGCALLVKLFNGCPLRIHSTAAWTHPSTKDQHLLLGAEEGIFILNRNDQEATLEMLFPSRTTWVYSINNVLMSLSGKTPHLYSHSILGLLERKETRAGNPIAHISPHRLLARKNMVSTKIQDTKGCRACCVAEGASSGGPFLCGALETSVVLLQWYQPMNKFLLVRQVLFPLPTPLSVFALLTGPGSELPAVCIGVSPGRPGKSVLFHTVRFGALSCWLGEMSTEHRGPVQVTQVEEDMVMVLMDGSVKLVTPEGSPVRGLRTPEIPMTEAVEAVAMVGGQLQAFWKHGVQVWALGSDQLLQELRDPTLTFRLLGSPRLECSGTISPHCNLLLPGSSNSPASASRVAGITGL

[3] = biological target: T3, HPK1 protein (Mus musculus, UniProt P70218); assay: HPK1 protein degradation in mouse pan T cell (western blot); assay type: cell-based; conditions: 18 h incubation
T3 construct: the CD3+ T cell population was isolated from spleenocytes of mice; endogenous in cells; host or cells: primary mouse splenic CD3+ (pan) T cells
T3 sequence (P70218 1-827): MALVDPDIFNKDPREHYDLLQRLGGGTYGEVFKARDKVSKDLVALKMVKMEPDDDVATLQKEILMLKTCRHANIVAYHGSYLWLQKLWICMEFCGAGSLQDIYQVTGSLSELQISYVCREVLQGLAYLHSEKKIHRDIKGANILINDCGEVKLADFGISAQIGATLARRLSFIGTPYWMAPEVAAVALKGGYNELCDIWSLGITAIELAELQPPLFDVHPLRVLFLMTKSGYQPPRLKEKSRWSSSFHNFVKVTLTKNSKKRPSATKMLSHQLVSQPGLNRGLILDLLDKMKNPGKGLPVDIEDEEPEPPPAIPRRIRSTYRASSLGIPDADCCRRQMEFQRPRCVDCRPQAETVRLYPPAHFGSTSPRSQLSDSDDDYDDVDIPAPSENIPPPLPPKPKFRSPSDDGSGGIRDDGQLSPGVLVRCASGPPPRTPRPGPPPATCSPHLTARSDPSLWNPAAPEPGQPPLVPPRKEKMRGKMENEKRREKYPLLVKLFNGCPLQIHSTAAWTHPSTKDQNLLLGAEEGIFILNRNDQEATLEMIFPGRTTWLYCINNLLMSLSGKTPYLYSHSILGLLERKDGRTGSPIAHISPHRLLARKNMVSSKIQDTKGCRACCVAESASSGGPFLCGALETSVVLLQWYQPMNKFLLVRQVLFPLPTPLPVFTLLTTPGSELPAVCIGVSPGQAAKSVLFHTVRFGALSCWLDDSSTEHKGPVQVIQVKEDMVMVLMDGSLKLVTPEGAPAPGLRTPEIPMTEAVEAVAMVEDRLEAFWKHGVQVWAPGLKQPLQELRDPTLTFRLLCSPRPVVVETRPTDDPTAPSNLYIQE
Description: HPK1 protein degradation in mouse pan T cell: the CD3+ T cell population was isolated from spleenocytes of mice by using Pan T cell isolation kit from Miltenyi Biotec (130-095-130) following manufacture's instruction. The isolated T cells were then incubated with a variety of concentrations of compound. After incubation for 18 h, the cells were collected and lysed. The protein concentration was determined by BCA protein assay kit from Thermo (23227). The HPK1 protein level was determined by western blots, using anti-human HPK1 polyclonal antibody from CST (4472). Proteins were loaded into each well of the pre-casting gels and subjected to electrophoretic separation by SDS-PAGE. The protein resolved by SDS-PAGE were transferred to PVDF, blocked by 5% skim milk and probed with anti-human HPK1 antibody or β-actin antibody from CST (3700S), using following standard western blotting procedure.

[4] = system: HPK1 p-SLP-76; assay: HPK1 p-SLP-76 inhibition assay in human PBMC (HTRF); assay type: cell-based; conditions: 6 h compound, anti-CD3 stimulation 20 min
Description: Human PBMC were purchased from OriCells (FPB004F-C). Before compound treatment, PBMC were starved in PRMI-1640 medium supplemented with 0.5% FBS overnight. The cell density was adjusted to 1*10^7 cells/mL in assay medium (RPMI-1640 no phenol red with 0.5% FBS) and 16 μL cell suspension was transferred per well to a 384-well plate (Corning #3765). 6× solution of test compound was prepared in assay medium and 4 μL was added per well to the 384-well plate. The plate was then incubated at 37° C., 5% CO2 for 6 h. PBMC in 384-well plate were stimulated with anti-CD3 (BD Biosciences #555329, final conc. is 10 ug/mL) for 20 min at 37° C., 5% CO2 by adding 4 μL 6× antibody solution per well. Phospho-SLP76 HTRF kit was purchased from Cisbio (63ADK076PEH). 8 μL 4× Lysis Buffer was added to 384-well plate after anti-CD3 stimulation. The plate was centrifuged at 1,000 rpm for 1 min, shaken at 250 rpm for 60 min and centrifuged again at 1,000 rpm for 5 min. Afterwards the cell lysates were transferred to the assay plate (Greiner #784075) with 16 μL per well. 4 μL detection antibody mix per well prepared in Detection Buffer was added to the assay plate, followed by centrifugation at 1,000 rpm for 1 min and incubation at 25° C. overnight.

| SMILES | IC50 [1] [nM] | Dmax [2] [%] | Dmax [3] [%] | IC50 [4] [nM] |
| --- | --- | --- | --- | --- |
| CCc1c[nH]c2ncc(-c3cccc(N4CCN(CCC(=O)N5CCN(c6cc7c(cc6F)C(=O)N(C6CCC(=O)NC6=O)C7=O)CC5)CC4=O)c3)c(Cl)c12 (stereo not drawn) [Example 30, 5-(4-(3-(4-(3-(4-chloro-3-ethyl-1H-pyrrolo[2,3-b]pyridin-5-yl)phenyl)-3-oxopiperazin-1-yl)propanoyl)piperazin-1-yl)-2-(2,6-dioxopiperidin-3-yl)-6-fluoroisoindoline-1,3-dione] | 10 to 100 | 61 | 80 |  |
| O=C1CCC(N2C(=O)c3cc(F)c(N4CCC(OCCCN5CCN(c6cccc(-c7cnc8[nH]cc(CC(F)F)c8c7Cl)c6)C(=O)C5)CC4)cc3C2=O)C(=O)N1 (stereo not drawn) [Example 39, 5-(4-(3-(4-(3-(4-chloro-3-(2,2-difluoroethyl)-1H-pyrrolo[2,3-b]pyridin-5-yl)phenyl)-3-oxopiperazin-1-yl)propoxy)piperidin-1-yl)-2-(2,6-dioxopiperidin-3-yl)-6-fluoroisoindoline-1,3-dione] | 100 to 1000 | 85 | 80 |  |
| CN(CC(=O)N1CCN(c2cccc(-c3cnc4[nH]cc(C5CC5)c4c3Cl)c2)C(=O)C1)C1CCN(c2cc3c(cc2F)C(=O)N(C2CCC(=O)NC2=O)C3=O)CC1 (stereo not drawn) [Example 42] | 10 to 100 | 40 | 95 |  |
| CC(COC1CCN(c2cc3c(cc2F)C(=O)N(C2CCC(=O)NC2=O)C3=O)CC1)N1CCN(c2cccc(-c3cnc4[nH]cc(C5CC5)c4c3Cl)c2)C(=O)C1 (stereo not drawn) [Example 49, 5-(4-(2-(4-(3-(4-chloro-3-cyclopropyl-1H-pyrrolo[2,3-b]pyridin-5-yl)phenyl)-3-oxopiperazin-1-yl)propoxy)piperidin-1-yl)-2-(2,6-dioxopiperidin-3-yl)-6-fluoroisoindoline-1,3-dione] | 100 to 1000 | < 50 |  |  |
| CCc1c[nH]c2ncc(-c3cccc(N4CCN(C(=O)CCN5CCN(C(=O)c6ccc(C)c(N7CCC(=O)NC7=O)c6)CC5)CC4=O)c3)c(Cl)c12 [Example 50, 1-(5-(4-(3-(4-(3-(4-chloro-3-ethyl-1H-pyrrolo[2,3-b]pyridin-5-yl)phenyl)-3-oxopiperazin-1-yl)-3-oxopropyl)piperazine-1-carbonyl)-2-methylphenyl)dihydro pyrimidine-2,4 (1H,3H)-dione] | ≤ 10 |  | 80 | > 10000 |
| O=C1CCC(N2Cc3cc(C4=CC5CCC(C4)N5CCCN4CCN(c5cccc(-c6cnc7[nH]cc(C8CC8)c7c6Cl)c5)C(=O)C4)ccc3C2=O)C(=O)N1 (stereo not drawn) [Example 64, 3-(5-(8-(3-(4-(3-(4-chloro-3-cyclopropyl-1H-pyrrolo[2,3-b]pyridin-5-yl)phenyl)-3-oxopiperazin-1-yl)propyl)-8-azabicyclo[3.2.1]oct-2-en-3-yl)-1-oxoisoindolin-2-yl)piperidine-2,6-dione] | ≤ 10 | 70 |  |  |

Second part, led by results:

| IC50 [1] [nM] | Dmax [2] [%] | Dmax [3] [%] | SMILES | IC50 [4] [nM] |
| --- | --- | --- | --- | --- |
| 10 to 100 | 60 |  | CCc1c[nH]c2ncc(-c3cccc(N4CCN(C(=O)CCN5CCN(c6ccc7c(c6)C(=O)N(C6CCC(=O)NC6=O)C7=O)CC5)CC4=O)c3)c(Cl)c12 (stereo not drawn) [Example 21, 5-(4-(3-(4-(3-(4-chloro-3-ethyl-1H-pyrrolo[2,3-b]pyridin-5-yl)phenyl)-3-oxopiperazin-1-yl)-3-oxopropyl)piperazin-1-yl)-2-(2,6-dioxopiperidin-3-yl)isoindoline-1,3-dione] |  |
| 10 to 100 | 86 | 91 | CCc1c[nH]c2ncc(-c3cccc(N4CCN(CCOC5CCN(c6cc7c(cc6F)C(=O)N(C6CCC(=O)NC6=O)C7=O)CC5)CC4=O)c3)c(Cl)c12 (stereo not drawn) [Example 26] |  |
| 10 to 100 | 98 | 95 | O=C1CCC(N2C(=O)c3ccc(N4CCC(OCC(=O)N5CCN(c6cccc(-c7cnc8[nH]cc(C9CC9)c8c7Cl)c6)C(=O)C5)CC4)cc3C2=O)C(=O)N1 (stereo not drawn) [Example 31] |  |
| 10 to 100 | 78 | 90 | CCc1c[nH]c2ncc(-c3cccc(N4CCN(C(=O)CCOC5CCN(c6ccc7c(c6)C(=O)N(C6CCC(=O)NC6=O)C7=O)CC5)CC4=O)c3)c(Cl)c12 (stereo not drawn) [Example 32] |  |
| 10 to 100 | 30 | 90 | CCc1c[nH]c2ncc(-c3cccc(N4CCN(CC5CCN(c6cc7c(cc6F)C(=O)N(C6CCC(=O)NC6=O)C7=O)CC5)CC4=O)c3)c(Cl)c12 (stereo not drawn) [Example 38, 5-(4-((4-(3-(4-chloro-3-ethyl-1H-pyrrolo[2,3-b]pyridin-5-yl)phenyl)-3-oxopiperazin-1-yl)methyl)piperidin-1-yl)-2-(2,6-dioxopiperidin-3-yl)-6-fluoro isoindoline-1,3-dione] |  |
| 10 to 100 | 88 | 95 | O=C1CCC(N2C(=O)c3cc(F)c(N4CCC(OCCCN5CCN(c6cccc(-c7cnc8[nH]cc(C9CC9)c8c7Cl)c6)C(=O)C5)CC4)cc3C2=O)C(=O)N1 (stereo not drawn) [Example 40, 5-(4-(3-(4-(3-(4-chloro-3-cyclopropyl-1H-pyrrolo[2,3-b]pyridin-5-yl)phenyl)-3-oxopiperazin-1-yl)propoxy)piperidin-1-yl)-2-(2,6-dioxopiperidin-3-yl)-6-fluoroisoindoline-1,3-dione] |  |
| 10 to 100 | 90 | 95 | O=C1CCC(N2C(=O)c3cc(F)c(N4CCN(CCCN5CCN(c6cccc(-c7cnc8[nH]cc(CC(F)F)c8c7Cl)c6)C(=O)C5)CC4)cc3C2=O)C(=O)N1 (stereo not drawn) [Example 41] |  |
| ≤ 10 |  | 95 | Cn1nc(N2CCC(=O)NC2=O)c2ccc(C3CCN(CCCN4CCN(c5cccc(-c6cnc7[nH]cc(C8CC8)c7c6Cl)c5)C(=O)C4)CC3)cc21 [Example 77, 1-(6-(1-(3-(4-(3-(4-chloro-3-cyclopropyl-1H-pyrrolo[2,3-b]pyridin-5-yl)phenyl)-3-oxopiperazin-1-yl)propyl)piperidin-4-yl)-1-methyl-1H-indazol-3-yl)dihydro pyrimidine-2,4 (1H,3H)-dione] | ≤ 300 |

Reference: patent US20240368159A1, “HPK1 DEGRADERS, COMPOSITIONS COMPRISING THE HPK1 DEGRADER, AND METHODS OF USING THE SAME” (BIOFRONT LTD, priority 2021, published 2024)
